Data on 42 compounds can be found in patent US20050148627A1, “Benzopyran compounds for use in the treatment and prevention of inflammation related conditions” (priority 2003, published 2005).

This experiment addresses COX-1 (Homo sapiens, UniProt P23219). The experiment in a line: biochemical.

Each structure is given as a SMILES string. Values joined by “and” are separate entries in the source; they are usually repeats but may differ in a detail not shown here. Identical values can stand only once.

Sequence of COX-1 (P23219 24-599): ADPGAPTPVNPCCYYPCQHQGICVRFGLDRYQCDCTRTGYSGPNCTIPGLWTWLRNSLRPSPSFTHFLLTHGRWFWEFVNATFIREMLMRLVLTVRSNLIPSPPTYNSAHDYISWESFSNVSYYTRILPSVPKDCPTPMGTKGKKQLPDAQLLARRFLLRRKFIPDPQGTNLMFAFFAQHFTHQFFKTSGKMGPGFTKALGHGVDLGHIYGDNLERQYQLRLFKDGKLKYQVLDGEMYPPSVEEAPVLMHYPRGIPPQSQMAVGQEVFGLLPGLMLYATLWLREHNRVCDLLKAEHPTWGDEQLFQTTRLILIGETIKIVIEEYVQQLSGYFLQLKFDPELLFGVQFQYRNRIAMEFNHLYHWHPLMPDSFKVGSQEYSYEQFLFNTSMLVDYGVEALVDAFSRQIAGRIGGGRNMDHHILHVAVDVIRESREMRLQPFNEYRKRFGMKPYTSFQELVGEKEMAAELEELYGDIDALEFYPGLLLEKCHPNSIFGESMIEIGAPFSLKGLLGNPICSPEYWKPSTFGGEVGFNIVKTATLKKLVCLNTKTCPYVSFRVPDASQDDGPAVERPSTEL

With `O=C(O)C1=Cc2cc(Cl)c(I)c(Cl)c2OC1C(F)(F)F` (stereo not drawn) [Example 22, 6,8-dichloro-7-iodo-2-(trifluoromethyl)-2H-chromene-3-carboxylic acid], the IC50 was > 1 µM and 25.6 µM and 12.4 µM. Take `NS(=O)(=O)c1ccc(C#Cc2cc(Cl)cc3c2OC(C(F)(F)F)C(C(=O)O)=C3)cc1` (stereo not drawn) [Example 39b, 8-{[4-(aminosulfonyl)phenyl]ethynyl}-6-chloro-2-(trifluoromethyl)-2H-chromene-3-carboxylic acid]: inhibition was half-maximal at 3.93 µM (IC50). Take `CC(C)(C)Oc1cc2c(cc1Cl)C=C(C(=O)O)C(C(F)(F)F)O2` (stereo not drawn) [Example 2g, 7-tert-butoxy-6-chloro-2-(trifluoromethyl)-2H-chromene-3-carboxylic acid]: the IC50 is > 500 µM. With `Nc1ccc(Oc2cc3c(cc2Cl)C=C(C(=O)O)C(C(F)(F)F)O3)c(F)c1` (stereo not drawn) [Example 2a, 7-(4-amino-2-fluorophenoxy)-6-chloro-2-(trifluoromethyl)-2H-chromene-3-carboxylic acid], the IC50 is < 0.137 µM and 0.347 µM and 0.112 µM. As to `Cc1c(Cc2ccccc2)ccc2c1OC(C(F)(F)F)C(C(=O)O)=C2` (stereo not drawn) [Example 14b, 7-benzyl-8-methyl-2-(trifluoromethyl)-2H-chromene-3-carboxylic acid], the half-maximal inhibitory concentration (IC50) is < 0.137 µM. In the case of `CCSc1cc2c(cc1Cl)C=C(C(=O)O)C(C(F)(F)F)O2` (stereo not drawn) [Example 7a, 6-chloro-7-(ethylthio)-2-(trifluoromethyl)-2H-chromene-3-carboxylic acid], the IC50 was > 100 µM.

For `CCc1cc(OC(F)(F)F)cc2c1O[C@@H](C(F)(F)F)C(C(=O)O)=C2` (single isomer, unassigned) [Example 21l], the half-maximal inhibitory concentration (IC50) is > 100 µM and 115 µM and 49.6 µM. For `CC1CC(C)CN(c2cc3c(cc2Cl)C=C(C(=O)O)C(C(F)(F)F)O3)C1` (stereo not drawn) [Example 8a, 6-chloro-7-(3,5-dimethylpiperidin-1-yl)-2-(trifluoromethyl)-2H-chromene-3-carboxylic acid], the IC50 is > 100 µM and 57.2 µM.

Take `O=C(O)C1=Cc2cc(Cl)c(CCC3CCCCC3)cc2OC1C(F)(F)F` (stereo not drawn) [Example 9i, 6-chloro-7-(2-cyclohexylethyl)-2-(trifluoromethyl)-2H-chromene-3-carboxylic acid]: the half-inhibitory concentration (IC50) was 12.7 µM and 12.5 µM. The same measure for `CC1CCCN(c2cc3c(cc2Cl)C=C(C(=O)O)C(C(F)(F)F)O3)C1` (stereo not drawn) [Example 8b, 6-chloro-7-(3-methylpiperidin-1-yl)-2-(trifluoromethyl)-2H-chromene-3-carboxylic acid]: 99 µM and 189 µM; for `Cc1cc(C)c(Cc2cc3c(cc2Cl)C=C(C(=O)O)C(C(F)(F)F)O3)cc1Cl` (stereo not drawn) [Example 9t, 6-chloro-7-(5-chloro-2,4-dimethylbenzyl)-2-(trifluoromethyl)-2H-chromene-3-carboxylic acid]: 5.5 µM; for `CCCCCc1cc(OC(F)(F)F)cc2c1OC(C(F)(F)F)C(C(=O)O)=C2` (stereo not drawn) [Example 21j, 8-pentyl-6-(trifluoromethoxy)-2-(trifluoromethyl)-2H-chromene-3-carboxylic acid]: 40.4 µM.

Consider `O=C(O)C1=Cc2cc(Cl)c(Cc3ccc(Cl)cc3)cc2OC1C(F)(F)F` (stereo not drawn) [Example 9o, 6-chloro-7-(4-chlorobenzyl)-2-(trifluoromethyl)-2H-chromene-3-carboxylic], for which the 50% inhibitory concentration (IC50) is 9.67 µM and 12.1 µM. The same measure for `CCc1ccc2c(c1)C=C(C(=O)O)[C@@H](C(F)(F)F)O2` (single isomer, unassigned) [Example 34b]: 57.9 µM and 35.5 µM; for `CC(C)(C)c1cc(Cl)c2c(c1)C=C(C(=O)O)C(C(F)(F)F)O2` (stereo not drawn) [Example 35, 6-tert-butyl-8-chloro-2-(trifluoromethyl)-2H-chromene-3-carboxylic acid]: 2.87 µM. On to `CCc1ccc2c(c1)C=C(C(=O)O)C(C(F)(F)F)O2` (stereo in doubt) [Example 34c, (2R)-6-ethyl-2-(trifluoromethyl)-2H-chromene-3-carboxylic acid], for which the IC50 was > 100 µM. `Cc1c(Cc2ccccc2)c(Cl)cc2c1OC(C(F)(F)F)C(C(=O)O)=C2` (stereo not drawn) [Example 14a, 7-benzyl-6-chloro-8-methyl-2-(trifluoromethyl)-2H-chromene-3-carboxylic acid]: the IC50 was < 0.137 µM. Consider `CC(C)CCSc1cc2c(cc1Cl)C=C(C(=O)O)C(C(F)(F)F)O2` (stereo not drawn) [Example 7b, 6-chloro-7-(isopentylthio)-2-(trifluoromethyl)-2H-chromene-3-carboxylic acid], for which the IC50 was > 100 µM. In turn, `COc1ccc(Cc2cc3c(cc2Cl)C=C(C(=O)O)C(C(F)(F)F)O3)cc1` (stereo not drawn) [Example 9q, 6-chloro-7-(4-methoxybenzyl)-2-(trifluoromethyl)-2H-chromene-3-carboxylic acid] registered a half-maximal inhibitory concentration (IC50) of 99.9 µM. Consider `CCCOc1c(Cl)c(Cl)c(Cl)c2c1OC(C(F)(F)F)C(C(=O)O)=C2` (stereo not drawn) [Example 28a, 5,6,7-trichloro-8-propoxy-2-(trifluoromethyl)-2H-chromene-3-carboxylic acid], for which the concentration for half-maximal inhibition (IC50) was 43.6 µM and 41.3 µM. `CCCCc1cc2c(cc1Cc1ccccc1)OC(C(F)(F)F)C(C(=O)O)=C2` (stereo not drawn) [Example 42d, 7-benzyl-6-butyl-2-(trifluoromethyl)-2H-chromene-3-carboxylic acid]: it took 58.3 µM to reach half-maximal inhibition (IC50). `CC(C)(C)CCOc1cc2c(cc1Cl)C=C(C(=O)O)C(C(F)(F)F)O2` (stereo not drawn) [Example 2e, 6-chloro-7-(3,3-dimethylbutoxy)-2-(trifluoromethyl)-2H-chromene-3-carboxylic acid] returned a half-maximal inhibitory concentration (IC50) of 68.8 µM. In turn, `O=C(O)C1=Cc2cc(Cl)c(Cc3ccccc3)cc2O[C@@H]1C(F)(F)F` (single isomer, unassigned) [Example 9m] gave an IC50 of 24.1 µM. For the compound `CCN(CC)c1cc2c(cc1Cl)C=C(C(=O)O)C(C(F)(F)F)O2` (stereo not drawn) [Example 8l, 6-chloro-7-(diethylamino)-2-(trifluoromethyl)-2H-chromene-3-carboxylic acid], the IC50 is > 33.3 µM and > 11.1 µM and 180 µM and > 100 µM. Take `O=C(O)C1=Cc2ccc(Cc3ccc(F)c(F)c3)cc2OC1C(F)(F)F` (stereo not drawn) [Example 9aa, 7-(3,4-difluorobenzyl)-2-(trifluoromethyl)-2H-chromene-3-carboxylic acid]: the IC50 is > 100 µM.

In the case of `CC(C)CNc1c(Cl)cc2c(c1Cl)OC(C(F)(F)F)C(C(=O)O)=C2` (stereo not drawn) [Example 38c, 6,8-dichloro-7-(isobutylamino)-2-(trifluoromethyl)-2H-chromene-3-carboxylic acid], the IC50 was < 0.137 µM. For `O=C(O)C1=Cc2cc(OCC(F)(F)F)cc(Cl)c2OC1C(F)(F)F` (stereo not drawn) [Example 17c, 8-chloro-6-(2,2,2-trifluoroethoxy)-2-(trifluoromethyl)-2H-chromene-3-carboxylic acid] the value was 3.58 µM and 0.623 µM; for `CCC(CC)COc1ccc2c(c1C)OC(C(F)(F)F)C(C(=O)O)=C2` (stereo not drawn) [Example 5d, 7-(2-ethylbutoxy)-8-methyl-2-(trifluoromethyl)-2H-chromene-3-carboxylic acid], 31.9 µM and 17.2 µM. For `O=C(O)C1=Cc2cc(-c3ccc(F)cc3)ccc2NC1C(F)(F)F` (stereo not drawn) [Example 48, 6-(4-fluorophenyl)-2-(trifluoromethyl)-1,2-dihydroquinoline-3-carboxylic acid] the value was 42.7 µM; for `O=C(O)C1=Cc2cc(Cl)c(OCC3CCCC3)c(Cl)c2OC1C(F)(F)F` (stereo not drawn) [Example 1c, 6,8-dichloro-7-(cyclopentylmethoxy)-2-(trifluoromethyl)-2H-chromene-3-carboxylic acid], 0.543 µM and 0.143 µM. Take `Cc1ccc(Cc2cc3c(cc2Cl)C=C(C(=O)O)C(C(F)(F)F)O3)cc1` (stereo not drawn) [Example 9x, 6-chloro-7-(4-methylbenzyl)-2-(trifluoromethyl)-2H-chromene-3-carboxylic acid]: the IC50 is 5.59 µM and 10.3 µM. As for `CCCCc1cc2c(cc1Cl)C=C(C(=O)O)C(C(F)(F)F)O2` (stereo not drawn) [Example 9a, 7-butyl-6-chloro-2-(trifluoromethyl)-2H-chromene-3-carboxylic acid], the half-maximal inhibitory concentration (IC50) is 9.97 µM and 5.11 µM and 9.72 µM and 5.97 µM and 8.31 µM and 9.5 µM and > 1.2 µM. On to `O=C(O)C1=Cc2ccc(C(=O)c3cccnc3)cc2OC1C(F)(F)F` (stereo not drawn) [Example 11, 7-(pyridin-3-ylcarbonyl)-2-(trifluoromethyl)-2H-chromene-3-carboxylic acid], for which the IC50 is > 100 µM. In the case of `CCC(C)Sc1cc2c(cc1Cl)C=C(C(=O)O)C(C(F)(F)F)O2` (stereo not drawn) [Example 7g, 7-(sec-butylthio)-6-chloro-2-(trifluoromethyl)-2H-chromene-3-carboxylic acid], the IC50 is 7.2 µM and 6.35 µM.

As to `CCCSc1cc2c(cc1Cl)C=C(C(=O)O)C(C(F)(F)F)O2` (stereo not drawn) [Example 7c, 6-chloro-7-(propylthio)-2-(trifluoromethyl)-2H-chromene-3-carboxylic acid], the IC50 is > 100 µM. For `O=C(O)C1=Cc2ccc(Oc3ccc([N+](=O)[O-])cc3F)cc2OC1C(F)(F)F` (stereo not drawn) [Example 5a, 7-(2-fluoro-4-nitrophenoxy)-2-(trifluoromethyl)-2H-chromene-3-carboxylic acid], the half-inhibitory concentration (IC50) was > 100 µM and 264 µM and 199 µM. Compound `CCCOc1c(Cl)cc2c(c1C)OC(C(F)(F)F)C(C(=O)O)=C2` (stereo not drawn) [Example 3c, 6-chloro-8-methyl-7-propoxy-2-(trifluoromethyl)-2H-chromene-3-carboxylic acid] returned an IC50 of 2.3 µM. The same measure for `Cc1cc2c(c(C)c1Cl)C=C(C(=O)O)C(C(F)(F)F)O2` (stereo not drawn) [Example 100, 6-chloro-5,7-dimethyl-2-(trifluoromethyl)-2H-chromene-3-carboxylic acid]: 30.2 µM and 29.4 µM. Regarding `O=C(O)C1=Cc2cc(Cl)c(SCc3ccccc3)cc2OC1C(F)(F)F` (stereo not drawn) [Example 7e, 7-(benzylthio)-6-chloro-2-(trifluoromethyl)-2H-chromene-3-carboxylic acid], the half-maximal inhibitory concentration (IC50) is > 100 µM. The same measure for `CC1CCN(c2cc3c(cc2Cl)C=C(C(=O)O)C(C(F)(F)F)O3)CC1` (stereo not drawn) [Example 8d, 6-chloro-7-(4-methylpiperidin-1-yl)-2-(trifluoromethyl)-2H-chromene-3-carboxylic acid]: > 100 µM; for `O=C(O)C1=Cc2c(cc3c(c2Cl)OCO3)OC1C(F)(F)F` (stereo not drawn) [Example 119, 9-chloro-6-(trifluoromethyl)-6H-[1,3]dioxolo[4,5-g]chromene-7-carboxylic acid]: > 500 µM; for `O=C(O)C1=Cc2cc(Cl)c(C(=O)c3ccccc3)cc2OC1C(F)(F)F` (stereo not drawn) [Example 10, 7-benzoyl-6-chloro-2-(trifluoromethyl)-2H-chromene-3-carboxylic acid]: < 0.137 µM.
